{
  "source": "patent US9186390B2",
  "about": "“Methods and uses of TIE2 binding and/or activating agents” (Sunnybrook Health Sciences Center, priority 2010, dated 2015)",
  "key": {"Tie2 receptor": {"molecular_target": "T1, Tie2 receptor (Mus musculus, UniProt Q02858)", "T1 construct": "from tissue; host or cells: lung of CD1 mice (in vivo dosing, lung homogenate)", "T1 sequence (Q02858 23-1122)": "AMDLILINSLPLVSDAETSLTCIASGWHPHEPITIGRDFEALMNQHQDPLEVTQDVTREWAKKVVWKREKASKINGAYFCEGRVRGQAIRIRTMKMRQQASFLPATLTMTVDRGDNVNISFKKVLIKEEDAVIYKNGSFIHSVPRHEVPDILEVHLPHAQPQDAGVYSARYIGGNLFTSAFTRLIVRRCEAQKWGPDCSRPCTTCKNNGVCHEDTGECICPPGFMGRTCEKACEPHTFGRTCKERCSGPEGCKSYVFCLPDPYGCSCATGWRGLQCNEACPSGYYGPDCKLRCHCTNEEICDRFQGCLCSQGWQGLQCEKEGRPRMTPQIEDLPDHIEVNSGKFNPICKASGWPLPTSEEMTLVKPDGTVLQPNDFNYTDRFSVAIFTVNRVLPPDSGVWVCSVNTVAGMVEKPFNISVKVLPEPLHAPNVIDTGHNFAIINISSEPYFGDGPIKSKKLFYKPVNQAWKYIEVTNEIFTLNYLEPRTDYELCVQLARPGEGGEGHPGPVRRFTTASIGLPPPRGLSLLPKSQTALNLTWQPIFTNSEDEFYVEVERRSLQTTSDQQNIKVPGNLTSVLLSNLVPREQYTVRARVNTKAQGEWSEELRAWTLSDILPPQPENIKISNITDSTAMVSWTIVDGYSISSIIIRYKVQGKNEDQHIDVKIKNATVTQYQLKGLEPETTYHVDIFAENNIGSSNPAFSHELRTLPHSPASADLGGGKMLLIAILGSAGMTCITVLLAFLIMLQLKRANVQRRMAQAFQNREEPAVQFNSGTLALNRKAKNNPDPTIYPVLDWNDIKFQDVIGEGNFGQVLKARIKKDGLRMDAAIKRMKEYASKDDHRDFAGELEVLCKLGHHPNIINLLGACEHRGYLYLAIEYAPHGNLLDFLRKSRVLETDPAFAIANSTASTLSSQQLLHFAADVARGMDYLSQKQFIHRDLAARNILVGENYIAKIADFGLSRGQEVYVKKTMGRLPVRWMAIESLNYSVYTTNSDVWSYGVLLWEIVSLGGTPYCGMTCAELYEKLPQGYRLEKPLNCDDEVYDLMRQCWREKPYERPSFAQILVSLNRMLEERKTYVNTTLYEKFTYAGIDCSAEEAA", "test": "Tie2 activation in vivo (Tie2 immunoprecipitation from lung lysates, pY Tie2 western blot)", "parameters": "species or system CD1 mice", "conditions": "for time points at which activation of Tie2 (pY Tie2) was evident: pooled lung lysates of three mice", "method": "The following commercially available antibodies were used: monoclonal anti-Tie2 (Phaminogen), polyclonal anti-Tie2 (Santa Cruz Biotechnology) and monoclonal anti-pY (clone 4G10, Upstate Biotechnology). Lung lysates were prepared and immunoprecipitated in full RIPA buffer (50 mM Tris-HCl, pH 7.4, 150 mM NaCl, 1 mM PMSF, 1 mM EDTA, 5 μg/ml Aprotinin 5 μg/ml Leupeptin, 1% Triton x-100, 1% Sodium deoxycholate, 0.1% SDS). Proteins were resolved in 10% PAGE according to Laemlli and transferred to PVDF membrane for subsequent antibody probing.\nPurified Vasculotide was examined for its ability to activate the Tie2 receptor tyrosine kinase in CD1 mice (FIG. 1A). Three mice per group were injected intraperitoneally (IP) with either Vasculotide (500 ng-12.5 μg) or vehicle (PBS) control. After one hour, mice were sacrificed and lung homogenates were prepared for immunoblot analysis. […] This effect is particularly evident when total protein loading is accounted for (see pan Tie2, lower panel). While this may seem somewhat paradoxical, this phenomenon has also been reported by others while investigating the effect of Ang1 on Tie2 activation (Brkovic et al. (2007) J. Leukoc. Biol. 81(4), 1093-1101), Sturn et al. (2005) Microcirculation 12(5), 393-403, Murdoch et al. (2007) J Immunol 178(11), 7405-7411, van der Geer et al. (1994) Ann. Rev. Cell Biol. 10, 251-337, Gruber et al. (1995) Blood 86(7), 2488-2493, Maliba et al. (2008) J. Leukoc. Biol. 83(2), 352-360, and Van Slyke et al. (2009) Tissue Eng. Part A 15(6), 1269-1280).\nTo assess the duration of Tie2 activation following Vasculotide administration, three mice per time point were injected with 2 μg intraperitoneally (I.P.) or by gavage (P.O.). Lung lysates were prepared from each of the mice at the indicated times following initial dosing (FIG. 1B). Equal quantities of protein from each group were pooled and immunoprecipitated for Tie2 to establish an average Tie2 activation for each group. Activation of Tie2 (see pY Tie2, upper panels) was evident at time points ranging from 24-72 hours in the I.P. injected mice. By 96 hours post injection, the Tie2 receptor phosphorylation had returned to basal (PBS stimulated) levels."}, "[1]": {"tested_on": "AT derm mice (pTek-tTA:pTetOS-Tek)", "test": "Atopic dermatitis (AT derm) transgenic mouse model and wild-type littermates, 30-day Vasculotide treatment", "assay_type": "in vivo, CD1 mice", "description": "Briefly, construction of the driver transgene, pTek-tTA, and the responder transgenes, pTetOS-Tek, pTetos-Ang1, and pTetos-Ang2 have been described previously. All transgenic lines were maintained and genotyped as previously described (Voskas et al. (2005) Am. J. Pathol. 166(3):843-855, Ward et al. (2004) Am. J. Pathol. 165(3):889-899, Bureau et al. (2006) Am. J. Physiol. Heart Circ. Physiol. 291(2):H948-965). Males were housed with a single female for 14 to 20 days and then separated into individual cages. CD1 mice (an outbred mouse line) were maintained in a barrier facility. All adult mice used in these studies were 2 to 6 months old.\nMouse skin tissue was fixed in 4% paraformaldehyde (Sigma, St. Louis, Mo.) for 16 hours at 4 degrees Celsius, and transferred to 70% ethanol. Tissues were subsequently paraffin embedded and sectioned at 4 μM on SuperFrost glass slides. Tissue slides were stained for hematoxylin and eosin using standard techniques. For immunohistochemistry, anti-E-Selectin (rat; Pharmingen, La Jolla, Calif.), anti-VCAM1 (rat; Pharmingen), anti-ICAM1 (Hamster; Pharmingen, La Jolla, Calif.), primary antibodies were detected using biotinylated secondary antibodies as described in the Vectastain Elite ABC kit (Vector Laboratories, Burlingame, Calif.). Slides were processed and counterstained with methyl green using standard techniques. Slides were analyzed and photos were processed using a Leica compound light microscope coupled to a Leica DFC300FX camera (Wetzlar, Germany). Skin tissue was taken (biopsy) at day 0, prior to initiation of treatment and at 30 days. Gross phenotypic examination was conducted and mice were photographed in a standard format using a Digital Canon Eos Rebel.\nBlood was collected from all mice on day 0 (prior to treatment) and day 30 (after 30 days of treatment). On day 0, approximately 50 μl was collected via tail vein puncture into a lithium heparin micro tube. Day 30 blood was collected via cardiac puncture into a lithium heparin micro tube. Both blood samples were prepared for storage and subsequent analysis using Phosflow Lyse/Fix Buffer (BD Biosciences, Franklin Lakes, N.J.), according to manufacturers instructions. Cells were stained for IgE versus free FITC and characteristic populations of basophils and eosinophils were identified.\nNormal and double transgenic (pTek-tTA:pTetOS-Tek) CD1 mice were injected intra peritoneally with either sterile PBS, pH 7.4 (vehicle) or Vasculotide (40 μg/kg) every three days for the period of 30 days. Mice were observed closely during this period for phenotypic resolution and/or any potential ill effects.\nPlasma was collected in lithium/heparin microtubes from all mice following 30 days of treatment with Vasculotide or vehicle. Plasma was diluted 1:8 in sample diluent (BD Biosciences, Franklin Lakes, N.J.). A multiplex analysis of 12 different mouse cytokines was examined according to manufacturer's instructions. Analysis and cytokine/chemokine quantification was performed using the manufacturers FCAP software package (BD Biosciences, Franklin Lakes, N.J.).\nBlood was collected from mice as previously described. Separated plasma was diluted 1:4 in calibrator diluent according to manufacturer's specifications (R&D Biosystems, Minneapolis, Minn. USA). All aspects of the assay were conducted according to manufacturer's directions. Quantification of plasma eotaxin concentrations was performed by linear regression analysis from assessment of defined amounts of eotaxin standard."}, "[2]": {"conditions": "AT derm and wild-type mice, 30 days treatment"}, "[3]": {"conditions": "AT derm mice, skin and underlying muscle, 40 μg/kg every 3 days for 30 days"}, "[4]": {"conditions": "wild-type (or single transgenic) mice, 30 days, p=0.0027"}},
  "note": "Entries after “also recorded” stand apart in the source; their conditions may differ.",
  "data": [
    {"substance": "Vasculotide: Modified T7 peptide (CHHHRHSF, SEQ ID NO:2) conjugated to 10 kDa tetrameric polyethylene glycol-maleimide; Tie2 binding peptide mimetic", "values": [
      {"measurement": "time points at which activation of Tie2 (pY Tie2) was evident", "setting": "Tie2 receptor; 2 μg I.P.", "value": "24-72 hours"},
      {"measurement": "time points at which activation of Tie2 (pY Tie2) was evident", "setting": "Tie2 receptor; 2 μg I.P., listed as Vasc-PEG", "value": "at least 72 hours"},
      {"measurement": "time by which Tie2 receptor phosphorylation had returned to basal (PBS stimulated) levels", "setting": "Tie2 receptor; 2 μg I.P., post injection", "value": 96, "unit": "h"},
      {"measurement": "Tie2 phosphorylation after gavage (oral availability)", "setting": "Tie2 receptor; 2 μg P.O., two hours post gavage", "value": "did not yield increased activation"},
      {"measurement": "Tie2 receptor-activating activity at higher doses", "setting": "Tie2 receptor; I.P. doses above 500 ng up to 12.5 μg, 1 hour", "value": "reduced receptor-activating activity"},
      {"measurement": "dose that activated Tie2 optimally (pY Tie2)", "setting": "Tie2 receptor; I.P., 1 hour in circulation, lung homogenates, doses 500 ng-12.5 μg", "value": 500, "unit": "ng/25-30 g mouse"},
      {"measurement": "body weight change during 30-day treatment", "setting": "[1]; 40 μg/kg every 3 days for 30 days, vs PBS", "value": "no statistically significant alteration; also recorded: no statistically detectable alteration"},
      {"measurement": "plasma eotaxin levels (ELISA)", "setting": "[1]; AT Derm mice vs PBS treated AT Derm mice, p=0.0208", "value": "statistically significant decrease"},
      {"measurement": "basophil numbers in peripheral blood (FACS)", "setting": "[1]; [2]", "value": "marked reduction; also recorded: Decreased numbers"},
      {"measurement": "eosinophil numbers in peripheral blood (FACS)", "setting": "[1]; [2]", "value": "marked reduction; also recorded: Decreased numbers"},
      {"measurement": "number of granulocytes in the bone marrow", "setting": "[1]; AT derm and wild-type mice, treated or untreated", "value": "unchanged"},
      {"measurement": "gross phenotype: erythema, micro-haemorrhages of the ears, scaly plaque formation on the tail", "setting": "[1]; AT derm mice (moderate or severe), 40 μg/kg every 3 days for 30 days", "value": "complete or almost complete resolution; also recorded: Gross phenotypic improvement"},
      {"measurement": "plasma IL-1β (cytometric bead array)", "setting": "[1]; AT derm mice vs PBS-treated AT derm mice, 30 days, p=0.0492", "value": "reduction"},
      {"measurement": "erythema after the third dose (9 days)", "setting": "[1]; AT derm mice, 40 μg/kg every three days", "value": "reduction in erythema"},
      {"measurement": "epidermal hyperplasia and infiltration of leukocytes (H&E staining of skin)", "setting": "[1]; AT derm mice, 30 days treatment vs PBS", "value": "dramatic reduction; also recorded: marked reduction"},
      {"measurement": "E-selectin expression (immunohistochemistry)", "setting": "[1]; [3]", "value": "very low or absent levels of positive staining; also recorded: dramatic reduction"},
      {"measurement": "ICAM1 expression (immunohistochemistry)", "setting": "[1]; [3]", "value": "very low or absent levels of positive staining; also recorded: dramatic reduction"},
      {"measurement": "VCAM1 expression (immunohistochemistry)", "setting": "[1]; [3]", "value": "very low or absent levels of positive staining; also recorded: dramatic reduction"},
      {"measurement": "neutrophils in peripheral blood (FACS)", "setting": "[1]; control and AT-Derm mice, 30 days treatment", "value": "No effects"},
      {"measurement": "plasma IL-5 (cytometric bead array)", "setting": "[1]; [4]", "value": "statistically significant decrease"},
      {"measurement": "plasma IL-13 (cytometric bead array)", "setting": "[1]; [4]", "value": "statistically significant decrease"},
      {"measurement": "plasma MIP1b (cytometric bead array)", "setting": "[1]; wild-type (or single transgenic) mice, 30 days, p=0.003", "value": "statistically significant decrease"},
      {"measurement": "plasma IL-9 (cytometric bead array)", "setting": "[1]; wild-type (or single transgenic) mice, 30 days, p=0.0079", "value": "statistically significant decrease"},
      {"measurement": "plasma MCP1 (cytometric bead array)", "setting": "[1]; wild-type (or single transgenic) mice, 30 days, p=0.0116", "value": "statistically significant decrease"},
      {"measurement": "plasma MIG (cytometric bead array)", "setting": "[1]; wild-type (or single transgenic) mice, 30 days, p=0.0117", "value": "statistically significant decrease"},
      {"measurement": "plasma TNF-α (cytometric bead array)", "setting": "[1]; wild-type (or single transgenic) mice, 30 days, p=0.0309", "value": "statistically significant decrease"},
      {"measurement": "plasma MIP1a (cytometric bead array)", "setting": "[1]; wild-type (or single transgenic) mice, 30 days, p=0.0473", "value": "statistically significant decrease"},
      {"measurement": "plasma IL-17 (cytometric bead array)", "setting": "[1]; wild-type (or single transgenic) mice, 30 days, p=0.0492", "value": "statistically significant decrease"},
      {"measurement": "plasma IL-12/IL-23 p40 (cytometric bead array)", "setting": "[1]; wild-type (or single transgenic) mice, 30 days, p=0.0494", "value": "statistically significant decrease"},
      {"measurement": "overt effects / appearance of single transgenic or wild-type littermates", "setting": "[1]; wild-type or single transgenic mice, 40 μg/kg every three days", "value": "no overt effects; also recorded: indistinguishable from PBS-treated"}
    ]}
  ]
}
